Test: Cabotegravir population pharmacokinetic (PopPK) model
Parameters: species or system human
Experimental: A cabotegravir population pharmacokinetic (PopPK) model was built based on PK data following cabotegravir (CAB) 200 mg/mL intramuscular (IM) injections collected in 16 historical studies (Population pharmacokinetics of cabotegravir following administration of oral tablet and long-acting intramuscular injection in adult HIV-1-infected and uninfected subjects. Han K, Baker M, Lovern M, Paul P, Xiong Y, Patel P, Moore K P, Seal C S, Cutrell A G, D'Amico R D, Benn P D, Landovitz R J, Marzinke M A, Spreen W R, Ford S L. Br J Clin Pharmacol. 2022 October; 88(10):4607-4622. doi: 10.1111/bcp.15439. Epub 2022 Jul. 4. PMID: 35695476) and updated based on PK data from 19 studies: LAI116585, LAI117010, LAI117011, LAI117020, 201741, 201479, 201480, 205696, LAI116482 (LATTE), LAI115428, LAI116815, 200056 (LATTE-2), 201120 (ECLAIR), 201103 (HPTN077), 201584 (FLAIR), 201585 (ATLAS), 207966 (ATLAS-2M), 201738 (HPTN 083) and 201739 (HPTN 084). A total of 34,850 CAB plasma concentrations collected at various time points from 2,694 participants were used to build this PopPK model. […] The simulations were performed as follows: covariates including body weight, BMI and smoking status were resampled 5000 times from the distribution of these covariates for males and females, generating 5000 virtual male subjects and 5000 virtual female subjects. Individual PK parameters of the virtual subjects were calculated using subject-specific covariates and using the population parameter estimates, subject-specific NONMEM inter-individual errors (ETAs) sampled from the distributions that are decided by the estimated variance-covariate matrix of between-subject variability from the final population PK model. Concentration-versus-time profiles of the virtual subjects were calculated using the individual PK parameters. Residual variability (EPS) was included in the simulation. Median and 10th and 90th percentiles (80% prediction interval) of the simulated concentration-versus-time profiles of the virtual males and females were calculated. […]

KA2 in relation to BMI: decreased with increasing BMI
KA2 in relation to needle length: lower with longer needle length
Long-acting intramuscular gluteal absorption rate constant (KA2), lower in people assigned female at birth than people assigned male at birth (CAB 200 mg/mL IM injections): 46.5%
Compound: C[C@H]1CO[C@@H]2Cn3cc(C(=O)NCc4ccc(F)cc4F)c(=O)c(O)c3C(=O)N12 [cabotegravir, (3S,11aR)—N-((2,4-difluorophenyl)methyl)-6-hydroxy-3-methyl-5,7-dioxo-2,3,5,11,11a-hexahydro(1,3)oxazolo(3,2-a)pyrido(1,2-d)pyrazine-8-carboxamide]
